Assay results published in patent US10239878B2, “Macrocyclic ligands with pendant chelating moieties and complexes thereof” (LUMIPHORE, INC., priority 2016, dated 2019).
Where a name gives a salt, the structure may show the parent alone. Marks after values point to notes of the source that are not given here.

Assays:
[1] = Europium titration experiments for determining extinction coefficients; type: physicochemical; conditions: for extinction coefficient: UV-vis titration with europium chloride, TBS buffer pH 7.6, at lambda max; for lambda max: UV-vis titration, TBS buffer; for ε at λmax: by europium titration, TBS buffer pH 7.6; for ε at λmax (starred values): assumed equal to those measured by titration for 16 · Eu or 43 · Eu
Procedure: In order to determine accurate extinction coefficients for 16 and 16⋅Eu, titration experiments using europium chloride as the titrant were performed. Europium chloride hexahydrate (13.22 mg, 0.03608 mmol) was dissolved into 5 mM citrate buffer (pH=4) using a 100 mL volumetric flask to give a 0.3608 mM europium chloride solution, which was then titrated into a 0.5 mL solution of 16 in TBS buffer (Tris-buffered saline, 50 mM Tris, 150 mM NaCl, pH=7.6) using 5 μL aliquots. The UV-vis spectra were adjusted for the increase in solvent volume due to each injection. The results of the UV-vis titration are plotted in FIG. 3.
The volume of europium chloride corresponds to 16.70 nmol of europium, meaning the starting concentration of ligand 16 was 33.40 μM. […] These absorbance and concentration values yield extinction coefficients of 13,600 M^−1 cm^−1 and 14,300 M^−1 cm^−1 for the ligand 16 and the complex 16⋅Eu respectively.
In order to determine accurate extinction coefficients for 43 and 43⋅Eu, titration experiments using europium chloride as the titrant were performed. Europium chloride hexahydrate (47.58 mg, 0.1299 mmol) was dissolved into 50 mM citrate buffer (pH=4) using a 10 mL volumetric flask to give a 12.99 mM europium chloride solution, which was then transferred to a 100 mL volumetric flask and diluted 1:10 with water. The resulting 1.299 mM europium chloride solution (in 5 mM citrate buffer) was then titrated into a 1 mL solution of 43 in TBS buffer using 5 μL aliquots. The UV-vis spectra were adjusted for the increase in solvent volume due to each injection. The results of the UV-vis titration are plotted in FIG. 4.
The volume of europium chloride corresponds to 47.46 nmol of europium, meaning the starting concentration of ligand 43 was 47.46 μM. […] These absorbance and concentration values yield extinction coefficients of 13,000 M^−1 cm^−1 and 12,800 M^−1 cm^−1 for the ligand and complex respectively.
Titration of ligand 43 was also performed by luminescence (FIG. 5), monitoring the europium signal at 612 nm upon photoexcitation of the solution at 340 nm. The ligand solution used for the UV-vis titration of 43 mentioned above was first diluted 1:10 in TBS buffer. Similarly, the 1.299 mM stock europium solution was separately diluted 1:10 with water. […] The 32.99 μL equivalence point gives extinction coefficients of 14,400 M^−1 cm^−1 at 383 nm and 14,200 M^−1 cm^−1 at 357 nm for 43 and 43⋅Eu respectively. Averaging the values from both UV-vis and luminescence titration experiments of 43 yields extinction coefficients of 13,700 M^−1 cm^−1 at 383 nm and 13,500 M^−1 cm^−1 at 357 nm for 43 and 43⋅Eu respectively.

[2] = Photophysical characterization of Eu complexes (UV-vis absorption, quantum yield, lifetime); type: physicochemical; conditions: for ε260/ε at λmax / ε280/ε at λmax / λmax / Φtotal at 365 nm excitation: TBS buffer; for ε260/ε at λmax / ε280/ε at λmax / λmax: pH 7.6; for Φtotal at 365 nm excitation: quinine sulfate as quantum yield standard; for Lifetime: luminescence, HPLC purified Eu complexes
Procedure: The europium complexes of ligands 16, 29, 33, 40, and 43 were prepared by separately dissolving each ligand (2 mg) into methanol (200 μL). Excess europium chloride hexahydrate (˜5 equivalents) was dissolved in methanol (200 μL) and the full volume was added to each of the ligand solutions. The solvent was removed, and the residue was dissolved into DMF (50 μL). The europium complexes were then purified by semi-prep HPLC on an Agilent 1260 Infinity instrument using an Eclipse XDB-C18 column (5 μm, 9.4×250 mm). The mobile phase was 10 to 30% acetonitrile in water containing 0.1% trifluoroacetic acid. The volatiles were removed from the HPLC eluents under vacuum, and the residues were separately dissolved into methanol (500 μL) to give methanolic stock solutions of each europium complex with greater than 98% purity. A few drops of these methanolic solutions were evaporated to dryness, and then the residue was dissolved into TBS buffer at a concentration of ca. 3 μM to make aqueous stock solutions (20 mL) with an absorbance of 0.05 (1 cm path length) at 365 nm. Five dilutions (1/6, 2/6, 3/6, 4/6, and 5/6) were made from these aqueous stock solutions to yield six samples with evenly spaced concentrations (3 mL volume each). Quinine sulfate dissolved in 0.05 M sulfuric acid was similarly diluted to a final absorbance of 0.05 at 365 nm, and this solution was similarly (1/6, 2/6, 3/6, 4/6, and 5/6) diluted to afford six quinine sulfate reference samples of evenly spaced concentration. Quinine sulfate in 0.05 M sulfuric acid was used as the quantum yield standard (Φ=0.508). By measuring the absorbance and luminescence of these dilute solutions, the quantum yields of the new Eu complexes were determined. A 5 cm path-length quartz cell was used to measure the absorbance of these dilute solutions in order to improve the UV-vis signal-to-noise. Steady state photoluminescence measurements were collected in a 1 cm fluorescence cuvette at 365 nm excitation wavelength, 1 nm resolution, 10 nm excitation slit width, 1 nm emission slit width, and 0.2 sec integration time on an instrument that has been described elsewhere (D'Aléo, A.; Moore, E. G.; Szigethy, G.; Xu, J.; Raymond, K. N. Inorg. Chem. 2009, 48, 9316.). Absorption spectra were measured at 1 nm resolution, and the absorbance of each sample was taken as the average absorbance measured from 360-370 nm to reflect the 10 nm excitation slit width used for luminescence measurements. The data derived from these experiments, and from the titration experiments in example 11 are tabulated below.

[3] = 250 mM DTPA competition experiments (kinetic stability of Eu complexes); type: physicochemical
Text: From these experiments, it is clear that 43⋅Eu is remarkably stable to a wide range of competitive metal ions and chelators. The competitor concentrations mentioned above are a good way to assess the kinetic stability of the complex in various assay conditions. DTPA is an exceptionally good ligand for lanthanide ions, and thus it is not typically used in practical assays. However, DTPA competition offers an excellent way to benchmark the kinetic stability of the complexes reported here. […] In order to compare the kinetic stability of the complexes reported here, a 750 mM stock solution (25 mL) of DTPA was prepared by dissolving DTPA (7.375 g, 18.75 mmol) into water (20 mL) containing potassium hydroxide (5.26 g, 93.75 mmol). The pH of the DTPA solution was adjusted to pH=7.6 by addition of concentrated hydrochloric acid, and then the solution was diluted to a final volume of 25 mL to give a 750 mM DTPA stock solution at pH=7.6. HPLC purified europium complexes of 16, 29, 33, 40, and 43 were separately diluted to 11 μM in TBS buffer, pH=7.6. For each DTPA competition experiment, 1 mL of the 750 mM DTPA solution was added to 2 mL of the 11 μM europium complex solution. The luminescence at 612 nm (365 nm excitation) was monitored for these five separate solutions containing 250 mM DTPA and 7.1 μM of each europium complex as a function of time.

[4] = Thorium(IV) complexes; ligand denticity bi- to deca-dentate; cited from earlier work
[5] = in 0.05 M sulfuric acid; cited from earlier work

ε260/ε at λmax [2]	ε280/ε at λmax [2]	λmax [2]	Φtotal at 365 nm excitation [2]	Lifetime [2]	SMILES	Log K1 [4]	other results
1.40	1.12	361 nm	30.9%	716 μs	O=C1NCCCN(C(=O)c2cccc(=O)n2[O-])CCCCN(C(=O)c2cccc(=O)n2[O-])CCCNC(=O)c2ccc(n([O-])c2=O)C(=O)NCCNC(=O)c2ccc1c(=O)n2[O-].[Eu+3] [16⋅Eu]		extinction coefficient [1]: 14,300 M^−1 cm^−1; lambda max [1]: 361 nm; ε at λmax [1]: 14,300 M^−1cm^−1
1.42	1.18	363 nm	29.8%	716 μs	NCCCC[C@H]1CNC(=O)c2ccc(c(=O)n2[O-])C(=O)NCCCN(C(=O)c2cccc(=O)n2[O-])CCCCN(C(=O)c2cccc(=O)n2[O-])CCCNC(=O)c2ccc(n([O-])c2=O)C(=O)N1.[Eu+3] [29⋅Eu]		ε at λmax (starred values) [1]: 14,300* M^−1cm^−1; kinetic stability relative to 43⋅Eu to challenge by DTPA [3]: at least an order of magnitude; kinetic stability relative to m-tetrahydrofurandiamine-based macrocycles (40⋅Eu and 43⋅Eu) [3]: ~5 ×
1.40	1.14	363 nm	30.0%	723 μs	NCCOCCNC(=O)C1CCCN(C(=O)c2cccc(=O)n2[O-])CCCNC(=O)c2ccc(n([O-])c2=O)C(=O)NCCNC(=O)c2ccc(c(=O)n2[O-])C(=O)NCCCN1C(=O)c1cccc(=O)n1[O-].[Eu+3] (stereo not drawn) [33⋅Eu]		ε at λmax (starred values) [1]: 14,300* M^−1cm^−1; kinetic stability relative to m-tetrahydrofurandiamine-based macrocycles (40⋅Eu and 43⋅Eu) [3]: ~5 ×; reduction in kinetic stability upon introduction of the spermine-based sidearm ([3]; 33⋅Eu versus 16⋅Eu, 43⋅Eu versus 40⋅Eu): two fold
1.51	1.19	357 nm	28.2%	729 μs	O=C1NCCCN(C(=O)c2cccc(=O)n2[O-])CCCCN(C(=O)c2cccc(=O)n2[O-])CCCNC(=O)c2ccc(n([O-])c2=O)C(=O)N[C@@H]2COC[C@@H]2NC(=O)c2ccc1c(=O)n2[O-].[Eu+3] [40⋅Eu]		ε at λmax (starred values) [1]: 13,500* M^−1cm^−1
					CC(=O)CC(C)=O [Acac]	7.85	
1.98	1.27	382 nm			O=C1NCCCN(C(=O)c2cccc(=O)n2O)CCCCN(C(=O)c2cccc(=O)n2O)CCCNC(=O)c2ccc(n(O)c2=O)C(=O)NCCNC(=O)c2ccc1c(=O)n2O [Compound 16]		extinction coefficient [1]: 13,600 M^−1 cm^−1; lambda max [1]: 382 nm; ε at λmax [1]: 13,600 M^−1cm^−1
					O=C(O)CN(CCN(CC(=O)O)CC(=O)O)CC(=O)O [EDTA]	25.3	
					O=C(O)CN(CCO)CCN(CC(=O)O)CC(=O)O [HEDTA]	18.5	
					O=C(O)CN(CC(=O)O)CC(=O)O [NTA]	16.9	
					C=C[C@H]1C[N@@]2CC[C@H]1C[C@H]2[C@H](O)c1ccnc2ccc(OC)cc12 [Quinine sulfate]		quantum yield standard Φ [5]: 0.508
					O=C(O)CN(CCN(CCN(CC(=O)O)CC(=O)O)CC(=O)O)CCN(CC(=O)O)CC(=O)O [TTHA]	31.9	
